PubChem BioAssay (NCI)
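Grown in 96-well plates, cells were treated for 48 hours with each compound at five concentrations. Insufficient inhibition: endpoint recorded as highest concentration tested. Abbreviation: GI50, concentration required for 50% inhibition of growth. TGI marks complete inhibition of growth.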

What was measured:
Experiment in all cases: NCI-60 cell line screen, 48 h
NCI/ADR-RES ovarian = system: NCI/ADR-RES ovarian
SN12C renal = system: SN12C renal
HT29 colon = system: HT29 colon
UACC-62 melanoma = system: UACC-62 melanoma
DU-145 prostate = system: DU-145 prostate
MALME-3M melanoma = system: MALME-3M melanoma
UO-31 renal = system: UO-31 renal
OVCAR-4 ovarian = system: OVCAR-4 ovarian
K-562 leukemia = system: K-562 leukemia
HCC-2998 colon = system: HCC-2998 colon
SK-MEL-2 melanoma = system: SK-MEL-2 melanoma
MOLT-4 leukemia = system: MOLT-4 leukemia
HOP-62 NSCLC = system: HOP-62 NSCLC
KM12 colon = system: KM12 colon
NCI-H226 lung = system: NCI-H226 lung
MDA-MB-435 = system: MDA-MB-435
786-0 renal = system: 786-0 renal
T-47D breast = system: T-47D breast
RPMI-8226 leukemia = system: RPMI-8226 leukemia
SF-295 CNS = system: SF-295 CNS
COLO 205 colon = system: COLO 205 colon
SR leukemia = system: SR leukemia
SF-539 CNS = system: SF-539 CNS
BT-549 breast = system: BT-549 breast
OVCAR-5 ovarian = system: OVCAR-5 ovarian
A549 NSCLC = system: A549 NSCLC
HOP-92 NSCLC = system: HOP-92 NSCLC
PC-3 prostate = system: PC-3 prostate
OVCAR-3 ovarian = system: OVCAR-3 ovarian
CCRF-CEM leukemia = system: CCRF-CEM leukemia
SF-268 CNS = system: SF-268 CNS
UACC-257 melanoma = system: UACC-257 melanoma
NCI-H522 lung = system: NCI-H522 lung
MCF7 breast = system: MCF7 breast
U251 CNS = system: U251 CNS
TK-10 renal = system: TK-10 renal
MDA-MB-231 breast = system: MDA-MB-231 breast
NCI-H23 lung = system: NCI-H23 lung
HS 578T breast = system: HS 578T breast
NCI-H460 lung = system: NCI-H460 lung
LOX IMVI melanoma = system: LOX IMVI melanoma
HL-60(TB) leukemia = system: HL-60(TB) leukemia
EKVX NSCLC = system: EKVX NSCLC
HCT-116 colon = system: HCT-116 colon
SW-620 colon = system: SW-620 colon
SK-OV-3 ovarian = system: SK-OV-3 ovarian
A498 renal = system: A498 renal
ACHN renal = system: ACHN renal
M14 melanoma = system: M14 melanoma
RXF 393 renal = system: RXF 393 renal
OVCAR-8 ovarian = system: OVCAR-8 ovarian
SK-MEL-28 melanoma = system: SK-MEL-28 melanoma
HCT-15 colon = system: HCT-15 colon
SNB-75 CNS = system: SNB-75 CNS
SK-MEL-5 melanoma = system: SK-MEL-5 melanoma
CAKI-1 renal = system: CAKI-1 renal
SNB-19 CNS = system: SNB-19 CNS

What does the source list for `CC(C)[C@H]1CC[C@H]2[C@@H](CC[C@H]3[C@](C)(CN)CCC[C@]23C)C1`?
GI50 (NCI/ADR-RES ovarian): 2.08 µM; TGI (NCI/ADR-RES ovarian): 3.93 µM; GI50 (SN12C renal): 1.75 µM; TGI (SN12C renal): 3.65 µM; GI50 (HT29 colon): 1.65 µM; TGI (HT29 colon): 3.3 µM; GI50 (UACC-62 melanoma): 3.38 µM; TGI (UACC-62 melanoma): 14.3 µM; GI50 (DU-145 prostate): 1.95 µM; TGI (DU-145 prostate): 3.58 µM; GI50 (MALME-3M melanoma): 2.48 µM; TGI (MALME-3M melanoma): 7.47 µM; GI50 (UO-31 renal): 1.76 µM; TGI (UO-31 renal): 4.21 µM; GI50 (OVCAR-4 ovarian): 4.36 µM; TGI (OVCAR-4 ovarian): 20.3 µM; GI50 (K-562 leukemia): 2.25 µM; TGI (K-562 leukemia): 5.31 µM; GI50 (HCC-2998 colon): 1.79 µM; TGI (HCC-2998 colon): 3.18 µM; GI50 (SK-MEL-2 melanoma): 2.57 µM; TGI (SK-MEL-2 melanoma): 5.99 µM; GI50 (MOLT-4 leukemia): 2.21 µM; TGI (MOLT-4 leukemia): 5.2 µM; GI50 (HOP-62 NSCLC): 1.89 µM; TGI (HOP-62 NSCLC): 3.48 µM; GI50 (KM12 colon): 1.79 µM; TGI (KM12 colon): 3.18 µM; GI50 (NCI-H226 lung): 4.99 µM; TGI (NCI-H226 lung): 23.5 µM; GI50 (MDA-MB-435): 2.13 µM; TGI (MDA-MB-435): 4.69 µM; GI50 (786-0 renal): 1.82 µM; TGI (786-0 renal): 3.24 µM; GI50 (T-47D breast): 1.96 µM; TGI (T-47D breast): 4.52 µM; GI50 (RPMI-8226 leukemia): 2.9 µM; TGI (RPMI-8226 leukemia): 12.2 µM; GI50 (SF-295 CNS): 1.83 µM; TGI (SF-295 CNS): 3.87 µM; GI50 (COLO 205 colon): 1.74 µM; TGI (COLO 205 colon): 3.27 µM; GI50 (SR leukemia): 2.65 µM; TGI (SR leukemia): 15.2 µM; GI50 (SF-539 CNS): 1.59 µM; TGI (SF-539 CNS): 2.95 µM; GI50 (BT-549 breast): 15.6 µM; TGI (BT-549 breast): 37.5 µM; GI50 (OVCAR-5 ovarian): 1.73 µM; TGI (OVCAR-5 ovarian): 3.44 µM; GI50 (A549 NSCLC): 2.18 µM; TGI (A549 NSCLC): 4.23 µM; GI50 (HOP-92 NSCLC): 1.22 µM; TGI (HOP-92 NSCLC): 8.12 µM; GI50 (PC-3 prostate): 2.36 µM; TGI (PC-3 prostate): 7.14 µM; GI50 (OVCAR-3 ovarian): 1.96 µM; TGI (OVCAR-3 ovarian): 3.84 µM; GI50 (CCRF-CEM leukemia): 3.42 µM; TGI (CCRF-CEM leukemia): 12.8 µM; GI50 (SF-268 CNS): 2.36 µM; TGI (SF-268 CNS): 6.04 µM; GI50 (UACC-257 melanoma): 2.68 µM; TGI (UACC-257 melanoma): 6.02 µM; GI50 (NCI-H522 lung): 1.91 µM; TGI (NCI-H522 lung): 3.82 µM; GI50 (MCF7 breast): 1.51 µM; TGI (MCF7 breast): 2.85 µM; GI50 (U251 CNS): 1.67 µM; TGI (U251 CNS): 3.08 µM; GI50 (TK-10 renal): 2.19 µM; TGI (TK-10 renal): 7.9 µM; GI50 (MDA-MB-231 breast): 2.05 µM; TGI (MDA-MB-231 breast): 4.51 µM; GI50 (NCI-H23 lung): 1.79 µM; TGI (NCI-H23 lung): 3.39 µM; GI50 (HS 578T breast): 2.45 µM; TGI (HS 578T breast): 6.67 µM; GI50 (NCI-H460 lung): 1.68 µM; TGI (NCI-H460 lung): 3.31 µM; GI50 (LOX IMVI melanoma): 1.61 µM; TGI (LOX IMVI melanoma): 2.98 µM; GI50 (HL-60(TB) leukemia): 1.8 µM; TGI (HL-60(TB) leukemia): 4.23 µM; GI50 (EKVX NSCLC): 4.11 µM; TGI (EKVX NSCLC): 17 µM; GI50 (HCT-116 colon): 1.72 µM; TGI (HCT-116 colon): 3.09 µM; GI50 (SW-620 colon): 1.84 µM; TGI (SW-620 colon): 3.49 µM; GI50 (SK-OV-3 ovarian): 4.25 µM; TGI (SK-OV-3 ovarian): 16.3 µM; GI50 (A498 renal): 13.2 µM; TGI (A498 renal): 27 µM; GI50 (ACHN renal): 2.42 µM; TGI (ACHN renal): 6.44 µM; GI50 (M14 melanoma): 1.77 µM; TGI (M14 melanoma): 3.18 µM; GI50 (RXF 393 renal): 2 µM; TGI (RXF 393 renal): 3.84 µM; GI50 (OVCAR-8 ovarian): 2.61 µM; TGI (OVCAR-8 ovarian): 5.62 µM; GI50 (SK-MEL-28 melanoma): 16.8 µM; TGI (SK-MEL-28 melanoma): 30.8 µM; GI50 (HCT-15 colon): 1.81 µM; TGI (HCT-15 colon): 3.98 µM; GI50 (SNB-75 CNS): 6.95 µM; TGI (SNB-75 CNS): 21.3 µM; GI50 (SK-MEL-5 melanoma): 4.87 µM; TGI (SK-MEL-5 melanoma): 17.3 µM; GI50 (CAKI-1 renal): 1.71 µM; TGI (CAKI-1 renal): 4.2 µM; GI50 (SNB-19 CNS): 3.19 µM; TGI (SNB-19 CNS): 12.9 µM
